# Patent US20260183283A1 (priority 2022, published 2026)
# Where two headings read alike, the source gives them in different places.
# Tests used:
# [1] = tested on: SynCre^+Pank1^−/−Pank2^−/− mice; test: Neurometabolites by 1H MRS in SynCre+Pank1−/−Pank2−/− mice; type: in vivo; settings: 10 mg/kg/day (75 ppm) in chow; midbrain 1H MRS at P45; normalized to total creatine; mean ± SD
# Method: The ^1H MRS studies were performed on a Bruker Clinscan 7T magnetic resonance imaging (MRI) scanner (Bruker BioSpin MRI GmbH, Ettlingen, Germany). Mice were anesthetized using isoflurane mixed with oxygen (1-2%) and the respiration rate was monitored. Each MRI was acquired with a mouse brain surface receive coil positioned over the mouse head and placed inside a 72 mm transmit/receive coil. After the localizer, a T2-weighted turbo spin echo sequence was performed in the coronal (TR/TE=2290/41 ms, matrix size=192×256, slice thickness 0.5 mm, number of slices=14) and axial (TR/TE=3841/50 ms, matrix size=192×144, slice thickness 0.4 mm, number of slices=42) orientations. The T2-weighted scans were used to position a 3.5×4.5×2.0 mm^3 voxel for spectroscopy in the midbrain to cover thalamus and hippocampus. […] The in vivo ^1H MRS data were quantified as the Metabolite to tCr ratio using LCModel software (v.6.3), a widely applied MRS analysis tool that employs a least-squares-based prior-knowledge fitting program. The concentration of metabolites was measured using the unsuppressed water peak as a concentration standard. […]
# Data analysis: Statistical significance (p values) was determined using a two-tailed Student's t test using GraphPad software. The MRS parameters were analyzed using ‘R’ 4.0.2 and the mean values and standard deviations were calculated for each group of mice. […]
# [2] = tested on: Pcca^−/−PCCA(A138T)^tg/0 mice; test: Survival of Pcca−/−PCCA(A138T)tg/0 mice; type: in vivo; settings: 22.5 ppm (3 mg/kg) in chow; untreated ~51%
# Excerpt: (§1) Water was supplied ad libitum.
# At postnatal day 90, the probability of survival of Pcca^−/−PCCA(A138T)^tg/0 mice was ˜51%.
# in vivo [3] = settings: female, rat
# in vivo [4] = settings: rat
# [5] = rat, in vivo
# in vivo [6] = settings: monkey
# in vivo [7] = settings: mouse, rat, dog, monkey, iv
# [8] = oral gavage 10 mg/animal and 200 mg/animal; tablet or suspension
# [9] = tested on: Pcca^−/−PCCA(A138T)^tg/0 mice; test: Acyl-CoA in liver, brain and heart of Pcca−/−PCCA(A138T)tg/0 mice; type: in vivo; settings: 22.5 ppm (3 mg/kg) in chow for 30 days after weaning
# Method: as §1
# Acyl-CoA Measurements by Mass Spectrometry: Acyl-CoAs were quantified as described by Sharma et al., Nat. Commun. 2018; 9:4399. Briefly, 30-40 mg of tissue was homogenized in 2 mL methanol and 1 mL water and incubated on ice for 30 minutes. 1.5 mL of chloroform and 1.2 mL of water was added to remove the lipids. The aqueous top layer was collected and 30 pmol of [13C]acetyl-CoA (Sigma) was added and dried overnight in a speedvac.
# Mass spectrometry of the acyl-CoA distribution was performed using a Finnigan TSQ Quantum (Thermo Electron) triple-quadrupole mass spectrometer. The instrument was operated in positive mode using single ion monitoring (SIM) neutral loss scanning corresponding to the loss of the phosphoadenosine diphosphate from CoA species. The ion source parameters were as follows: spray voltage, 4,000 V; capillary temperature, 250° C.; capillary offset, −35 V; sheath gas pressure, 10; auxiliary gas pressure, 5; and tube lens offset was set by infusion of the polytyrosine tuning and calibration in electrospray mode. Acquisition parameters were as follows: scan time, 0.5 s; collision energy, 30 V; peak width Q1 and Q3, 0.7 FWHM; Q2 CID gas, 0.5 mTorr; source CID, 10 V; neutral loss, 507.0 m/z; SIM mass of 810 m/z with a scan width of 8 m/z to capture the signal from cellular acetyl-CoA and the [13C]acetyl-CoA internal standard.
# [10] = dog, in vivo
# [11] = tested on: Pank1,2 neural knockout mice; test: Open field test in Pank1,2 neural knockout mice; type: in vivo; settings: 22.5 ppm in chow from postnatal day 14; postnatal day 45
# Method: The mice were maintained at 72°±2° F., humidity 50%±10% and a 14-hour light/10-hour dark cycle with the dark cycle starting at 20:00 hrs. Water was supplied ad libitum. […] The mice were randomized into the treatment arms. […] Each animal was placed in the center of the arena under standard overhead lighting and the total distance traveled and the percentage of time in motion were recorded.
# [12] = tested on: Pank1,2 neural knockout mice; test: Survival of Pank1,2 neural knockout mice; type: in vivo; settings: 75 ppm in chow from postnatal day 14; untreated ~50%
# Excerpt: Water was supplied ad libitum. Mice were maintained on a chow diet with purified ingredients containing 19% kcal protein, 66.5% kcal carbohydrate and 14.4% kcal fat (Envigo #TD170542) which was similar to standard rodent chow (LabDiet #5013). The mice were randomized into the treatment arms. […] However, this is an approximation, as SynCre^+Pank1^−/−Pank2^−/− mice both weigh less and eat less than wild-type mice. […] At the end of the dark cycle, individual mice were placed in an open rectangular arena (36.8 cm×43.2 cm) for 5 min during the light cycle and motor activity was evaluated using a video tracking system provided by HVS Image with associated 2100 Plus software (San Diego, CA, USA). Each animal was placed in the center of the arena under standard overhead lighting and the total distance traveled and the percentage of time in motion were recorded. The behaviors of age-matched control animals, treated with Compound (I) and untreated, were quantified and compared. […] Liver, forebrain and hindbrain were quickly excised, approximately 30-50 mg pieces were immediately flash frozen in liquid N2 and stored frozen at −80° C. until analysis. The plasma and tissue samples were used for Compound (I) and total CoA determinations.
# Following analysis of movement, all animals were sacrificed at postnatal Day 45 for examination of tissue CoA levels.
smiles,measurement,setting,value
"O=C(Cc1ccc(C2CC2)c(F)c1)N1CCN(c2ccc(Cl)nn2)CC1 [Compound (I), 1-(4-(6-chloropyridazin-3-yl)piperazin-1-yl)-2-(4-cyclopropyl-3-fluorophenyl)ethan-1-one]",GABA (GABA/tCr),[1],0.40 ± 0.02
same,Probability of survival at postnatal day 90,[2],~94%
same,NOAEL at 13 weeks,in vivo [3],8 mg/kg/day
same,clearance,in vivo [4]; iv,32.6 mL/min/kg
same,bioavailability,in vivo [4]; po,35.2%
same,Accumulation after multiple doses,[5],Less than 2 fold
same,Exposures in male rats versus female rats at the same doses,[5],lower exposures than female rats
same,clearance,in vivo [6]; iv,19.7 mL/min/kg
same,bioavailability,in vivo [6]; po,17.6%
same,half-life,in vivo [7],1 to 3 h
same,Dose proportionality of exposure as defined by AUC0-24,[8],dose proportional
same,Dose proportionality of exposure as defined by Cmax,[8],close to dose proportional
same,"C2-CoA in liver, brain and heart",[9],rescued to wild-type levels
same,Accumulation after multiple doses,[10],Less than 2 fold
same,Movement in open field,[11],some improvement in movement
same,Probability of survival at postnatal Day 45,[12],−70%
